Laboratory results: BigSolDB 2.1

O.O=C([O-])[C@H](O)[C@@H](O)[C@H](O)[C@H](O)CO.O=C([O-])[C@H](O)[C@@H](O)[C@H](O)[C@H](O)CO.[Ca+2]
solubility (mole fraction)
Conditions	in acetonitrile	in ethanol	in methanol	in n-propanol	in water
279.15 K	4.28e-06	9.52e-06	1.15e-05	5.01e-06	–
279.65 K	–	–	–	–	0.000997
283.15 K	4.56e-06	1.06e-05	1.26e-05	5.83e-06	–
284.65 K	–	–	–	–	0.00108
288.15 K	5.33e-06	1.29e-05	1.46e-05	7.78e-06	–
289.15 K	–	–	–	–	0.0012
293.15 K	7.75e-06	1.51e-05	1.77e-05	1.04e-05	–
294.15 K	–	–	–	–	0.00129
298.15 K	1.02e-05	1.73e-05	1.95e-05	1.33e-05	–
299.15 K	–	–	–	–	0.00146
303.15 K	1.24e-05	1.99e-05	2.34e-05	1.62e-05	0.00165
308.15 K	–	–	–	–	0.00199
308.65 K	1.64e-05	2.32e-05	2.65e-05	–	–
313.15 K	–	–	–	–	0.00227
313.65 K	1.99e-05	2.75e-05	2.99e-05	–	–
318.15 K	2.39e-05	3.04e-05	3.5e-05	–	0.00269
323.15 K	–	–	–	–	0.00311
